Data on two compounds can be found in paper PMC3674352 (Cell Death & Disease, 2013).

Assay type in all cases: cell-based
One assay concerns the target Bcl-2 (Homo sapiens, UniProt P10415). Description: growth of yeast co-expressing Bax and Bcl-2.
Assay [1] concerns the target T1, Bcl-xL (Homo sapiens, UniProt Q07817). Description: growth of yeast co-expressing Bax and Bcl-xL.
The target in assay [2] is T1, Bcl-xL. The assay can be described thus: growth and ATP content of yeast co-expressing Bax and Bcl-xL.

T1 sequence (Q07812 whole entry): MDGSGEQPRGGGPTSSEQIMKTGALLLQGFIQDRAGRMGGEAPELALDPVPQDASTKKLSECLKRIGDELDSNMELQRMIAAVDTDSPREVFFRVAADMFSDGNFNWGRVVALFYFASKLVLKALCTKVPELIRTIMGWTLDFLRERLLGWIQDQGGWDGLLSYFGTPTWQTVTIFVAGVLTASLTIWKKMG
T1 sequence (Q07817 whole entry): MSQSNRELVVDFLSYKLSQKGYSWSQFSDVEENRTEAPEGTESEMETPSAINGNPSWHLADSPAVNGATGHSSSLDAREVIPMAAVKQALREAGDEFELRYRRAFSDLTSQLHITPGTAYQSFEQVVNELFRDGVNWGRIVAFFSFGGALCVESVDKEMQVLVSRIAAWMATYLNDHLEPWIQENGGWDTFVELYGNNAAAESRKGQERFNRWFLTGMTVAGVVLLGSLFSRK
Chain of Bcl-2 (Q07812 whole entry): as the sequence (Q07812 whole entry) above
Chain of Bcl-2 (P10415 whole entry): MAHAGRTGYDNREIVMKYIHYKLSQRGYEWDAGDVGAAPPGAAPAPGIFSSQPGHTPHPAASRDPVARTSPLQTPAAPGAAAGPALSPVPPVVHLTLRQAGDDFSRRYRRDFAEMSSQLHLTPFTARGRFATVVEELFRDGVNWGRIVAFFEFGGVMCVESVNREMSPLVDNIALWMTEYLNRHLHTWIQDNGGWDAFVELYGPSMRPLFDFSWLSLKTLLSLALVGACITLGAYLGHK

With `CC1(C)CCC(c2ccc(Cl)cc2)=C(CN2CCN(c3ccc(C(=O)NS(=O)(=O)c4ccc(N[C@H](CCN5CCOCC5)CSc5ccccc5)c(S(=O)(=O)C(F)(F)F)c4)cc3)CC2)C1` [ABT-263], the results for the IC50 result on Bcl-2 and on Bcl-xL [1] were “~ just over 1 μM” and “~ just under 1 μM”, respectively. For `CN(C)CC[C@H](CSc1ccccc1)Nc1ccc(S(=O)(=O)NC(=O)c2ccc(N3CCN(Cc4ccccc4-c4ccc(Cl)cc4)CC3)cc2)cc1[N+](=O)[O-]` [ABT-737], the IC50 entry against Bcl-xL [2] is given as “~ just under 1 μM”.
